Assay results: patent publication US20250025454A1 (priority 2021, published 2025)
In brackets after ≈: the same amount, converted by molar mass. Like-named read-outs stand apart in the source and are kept apart here.

Experiments:
[1] = female, 129/S, mouse, in vivo
SARS-CoV-2/WA1 = format: cell-based
[2] = single oral dose, comparable for all doses, cited from earlier work
in vivo = conditions: female, 129/S, mouse

With `Cc1c(-c2ccc(O)cc2)n(Cc2ccc(OCCN3CCCCC3)cc2)c2ccc(O)cc12` [Pipendoxifene, 2-(4-hydroxyphenyl)-3-methyl-1-[[4-(2-piperidin-1-ylethoxy)phenyl]methyl]indol-5-ol] the C24h plasma concentration ([1]; 125 mg/kg) was 290 ng/mL, the C24h plasma concentration ([1]; 250 mg/kg) was 194 ng/mL and the Lung concentration ([1]; po, 250 mg/kg) was 784 ng/mL. The Plasma concentration ([1]; po, 250 mg/kg) was 194 ng/mL, the “IC50 expressed as mass concentration” value (SARS-CoV-2/WA1) was 0.328 µg/mL (≈ 0.718 µM) and the t1/2 [2] was 30 ± 16 h. The t1/2 ([2]; listed as pipendoxifene) was 30 h, the Kp (in vivo; C24 h lung concentrations relative to plasma concentrations (higher)) was 3 to 4 and the Kp (in vivo; po, 250 mg/kg, L/P Ratio) was 4.04. For the same compound, the Kp (in vivo; po, L/P Ratio) was 4.03.
